Measurements taken from patent US7968556B2, “Heteroaryl compounds, compositions thereof, and methods of treatment therewith” (Signal Pharmaceuticals, LLC, priority 2006, dated 2011).

target: T1, IKK-2 (Homo sapiens, UniProt O14920, S177E/S181E); assay: IKK-2 screening assay (IKK2EE 33P Assay / IKK2EE NEMO HTRF Assay); type: biochemical
T1 sequence (O14920 1-756 S177E/S181E): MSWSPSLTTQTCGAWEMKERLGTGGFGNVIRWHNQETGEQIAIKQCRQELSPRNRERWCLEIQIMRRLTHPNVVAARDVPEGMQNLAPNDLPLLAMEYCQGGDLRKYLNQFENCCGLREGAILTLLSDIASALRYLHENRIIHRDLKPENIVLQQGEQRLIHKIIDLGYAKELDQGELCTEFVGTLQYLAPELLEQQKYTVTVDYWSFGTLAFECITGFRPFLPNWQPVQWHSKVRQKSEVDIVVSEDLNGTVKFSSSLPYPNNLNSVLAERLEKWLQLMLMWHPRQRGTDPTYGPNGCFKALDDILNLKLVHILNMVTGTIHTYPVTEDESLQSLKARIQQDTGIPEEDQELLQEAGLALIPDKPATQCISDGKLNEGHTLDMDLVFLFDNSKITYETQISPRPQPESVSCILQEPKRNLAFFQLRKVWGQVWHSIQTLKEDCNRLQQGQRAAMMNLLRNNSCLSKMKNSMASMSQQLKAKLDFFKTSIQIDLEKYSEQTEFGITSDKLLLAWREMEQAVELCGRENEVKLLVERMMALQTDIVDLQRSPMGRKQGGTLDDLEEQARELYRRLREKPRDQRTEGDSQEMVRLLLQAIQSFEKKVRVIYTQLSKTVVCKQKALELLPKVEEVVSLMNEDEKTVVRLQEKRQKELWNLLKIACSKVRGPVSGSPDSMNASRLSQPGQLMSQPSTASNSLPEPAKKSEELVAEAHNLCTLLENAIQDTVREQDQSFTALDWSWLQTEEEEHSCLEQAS
Protocol: The following is an example of an assay that can be used to determine the IKK2EE inhibitory activity of a test compound.
A reaction buffer (pH 7.8) is prepared containing HEPES (20 mM), MgCl2 (10 mM), EDTA (0.1 mM), DTT (1 mM) and Triton X-100 (0.004%). IKK2EE (0.75 μg/ml is used. GST-IKBα (50 μg/ml) is used as substrate. Adenosine 5′-triphosphate (1.5 μM with ^33P-ATP 5 nCi/μl) is used. Reactions are stopped with trichloroacetic acid (6.25%).
Appropriate amounts of test compounds or controls in 100% DMSO are added to the assay plate. A peptide-substrate solution (PSS) is prepared by adding peptide stock to an appropriate volume of buffer (peptide concentration in the PSS will be about 100 μg/ml). An enzyme-peptide solution (EPS) is prepared by adding enzyme stock to an appropriate volume of PSS (the enzyme concentration in the EPS will be about 1 μg/ml). An ATP solution is prepared by adding ATP stock to an appropriate volume of buffer (the ATP concentration will be 15 μM).
85 μl of EPS is added to the assay wells (or PSS to positive control wells) of 96 well polypropylene plates. The ATP solution is then completed by adding ^33P-ATP (to a final concentration of 50 μCi/ml).
The reaction is initiated by adding 10 μl ATP solution to each well. Plates are shaken from about 12 seconds and allowed to incubate at room temperature for 1 hours. 100 μl of trichloroacetic acid solution (12.5%) is added to stop the reaction and the plates are incubated at room temperature for at least 10 minutes. The assay plates are harvested onto a Millipore Multiscreen harvest Plate FC using an appropriate harvester and the harvest plates are washed with 1×PBS solution for about 10 seconds (continuous flow). Harvest plates are allowed to dry thoroughly and the bottoms of the plates are sealed. 20-50 μl of Microscint20 is added to each well, tops are sealed and plates are read using an appropriate scintillation counter.
A reaction buffer (pH 7.6) is prepared containing HEPES (20 mM), MgCl2 (10 mM), EDTA (0.05 mM), DTT (1 mM) and Triton X-100 (0.004%). IKK2EE-NEMO (0.7 μg/ml is used. GST-IKBα (0.5 μg/ml) is used as substrate. Adenosine 5′-triphosphate (1.5 μM) is used. Detection reagents used are mouse anti-P-IKBα (30 ng/ml), Eu anti-mouse (300 ng/ml) and Cy5 anti-GST (11.5 μg/ml). Reactions are stopped with EDTA (20 mM).
An enzyme solution (ES) is prepared by adding enzyme stock to an appropriate volume of buffer (enzyme concentration in the ES will be about 1.7 ng/ml). A detection mixture (DM) is prepared by adding ATP (final conc. 3.75 μM), mouse anti-P-IKBα (final conc. 75 ng/ml), GST-IKBα (final conc. 1.26 μg/ml), Eu anti-mouse in buffer (final conc. 750 ng/ml).
5 μl of compound (solvated in 10% DMSO) is added to assay wells (or 10% DMSO to control wells) of low binding reaction plates. […] ES is added to assay wells (or buffer to control wells) and the reaction is initiated by adding 10 μl DM to all wells. Plates are incubated at room temperature for 45 minutes. Stop mixture is prepared by adding EDTA (final conc. 70 mM) and Cy5 anti-GST (final conc. 40 μg/ml) to an appropriate volume of buffer. Stop mixture is added and plates are shaken for 20 seconds and incubated at room temperature for at least 3 hours (preferably in the dark). Plates are read on an Analyst HT using Multi-Method HTRF.

| IC50 [µM] | SMILES |
| --- | --- |
| 0.1 to 5 | NC(=O)c1nc(-c2cccnc2)nc2c1[nH]c(=O)n2[C@H]1CC[C@H](O)CC1 [Compound 50, 9-(trans-4-Hydroxycyclohexyl)-8-oxo-2-(pyridin-3-yl)-8,9-dihydro-7H-purine-6-carboxamide] |
| > 30 | COc1ccccc1-n1c(=O)[nH]c2c(C(N)=O)nc(-c3ccc(O)cc3)nc21 [Compound 8, 2-(4-hydroxyphenyl)-9-(2-methoxyphenyl)-8-oxo-8,9-dihydro-7H-purine-6-carboxamide] |
| > 30 | COc1ccccc1-n1c(=O)[nH]c2c(C(N)=O)nc(-c3ccnc(O)c3)nc21 [Compound 13, 2-(2-hydroxypyridin-4-yl)-9-(2-methoxyphenyl)-8-oxo-8,9-dihydro-7H-purine-6-carboxamide] |
